# Legend:
# [1] = Ferric reducing antioxidant potential (FRAP) assay; parameters: concentration or dose not given beside the values; settings: for FRAP, % of Activity of Trolox: relative to Trolox; for FRAP, % of Activity of Ascorbic Acid: relative to ascorbic acid
# Procedure: In the ferric reducing antioxidant potential (FRAP) assay, in comparison with a blank sample prepared from DMSO mixed with FRAP reagent, the absorbance of the solutions was measured at λ = 593 nm. The compounds were tested according to a modified method proposed initially by Benzie and Strain [31]. Using Equation (4), we calculated the reducing antioxidant potential of 5a–d and 6a–d as a percentage of the activity of the reference compounds:(4) % of control activity=sample absorbance/reference absorbance×100
# Ferrous ions resulting from the reduction of ferric ions in the presence of an antioxidant compound form a blue-colored complex (Fe^2+-TPTZ) at pH = 3.6 with tripyridyltriazine (2,4,6-tris(2-pyridyl)-s-triazine). The intensity of the blue complex formed is proportional to the number of ferrous ions. Compounds 5a, 5c and 5d expressed a good electron donation capacity.
# [2] = DPPH˙ radical scavenging assay
# Procedure: The stock solutions (1 mg/mL) of the tested compounds and the controls were obtained, by dissolving the substances in dimethyl sulfoxide (DMSO). Using Jasco V-530, an UV-VIS spectrophotometer (Jasco International Co., Ltd., Tokyo, Japan), we performed the colorimetric determinations in low-volume single-use 10 mm width cuvettes.
# The assays were performed in triplicate and the results are presented as averages for each assay.
# The DPPH˙ radical scavenging assay is based on the transfer of one hydrogen from the analyzed compound to the violet stable free radical DPPH˙ (2,2-diphenyl-1-picrylhydrazyl), as we convert it into a yellow compound. The absorbance of the reagent mixed with samples presented inversely proportional values to the amount of DPPH˙ neutralized. The absorbance of the reagent was measured at λ = 517 nm, according to our previous reports. The assay was made in the presence of various concentrations of samples. The used protocol is based on the report of Brand-Williams et al..
# [3] = test system: A549 (lung adenocarcinoma) cells; assay: Cytotoxicity, Alamar blue assay, A549 cells; assay type: cell-based; settings: Homo sapiens, 24 h exposure
# Source text: (§1) Normal human foreskin (BJ) fibroblasts and two types of cancer cells, namely A549 (lung adenocarcinoma) and LNCaP (prostate carcinoma) purchased from American Type Culture Collection (Manassas, VA, USA), were used in the experiments. Each cell line was maintained in a different culture medium, depending on the metabolic necessities of the cells. BJ cells were maintained in Dulbecco’s modified Eagle’s medium (DMEM) with low glucose. A549 cells were maintained in DMEM with high glucose […], while LNCaP cells were grown in Roswell Park Memorial Institute (RPMI) 1640 medium with high glucose (5 g/L). All media used were supplemented with 10% fetal bovine serum (FBS) and were refreshed every two days. Cells were used in experiments or subcultured when they reached 70–80% confluence.
# (§2) In 100 µL in 96-well plates, a number of 30,000 LNCaP cells, 15,000 A549 cells, and 7500 normal (BJ) cells were seeded. Because the cells have different sizes and volumes, the purpose of the different seedings was to achieve a confluency of 70–80% after 24 h. All types of cells were further exposed to the synthesized compounds (5a–d and 6a–d) for 24 h, at a concentration ranging from 12.5 to 100 µg/mL. Post-exposure, the media were removed, and the cells were washed with phosphate buffer saline (PBS). Their viability was evaluated using Alamar blue (AB) assay as previously described. Briefly, the cells were incubated with a 200 µM resazurin solution for 4 h. Using a Synergy 2 multi-mode microplate reader, we measured the fluorescence. The measurement was performed at λexcitation = 530/25 nm; λemission = 590/35 nm. We conducted the experiments using three biological replicates, each one including 6 technical replicates. As negative controls (NC), cells exposed to culture medium containing 0.2% DMSO were used. Compared to the NC (100%), the results were expressed as relative values. We used IC50 values for the potency evaluation, and calculated them for each cell line, using the dose-effect curves obtained by fitting the experimental data with a 4-parameter logistic curve.
# (§3) Mean values ± standard deviation (SD) values of at least three biological replicates were used to calculate experimental data. One-way analysis of variance (ANOVA) with a post hoc Holm–Sidak test was used to statistically examine the data. Using SigmaPlot 11.0 software (Systat, Software Inc., Chicago, IL, USA), we performed the graphical display and data analysis. From a statistical point of view, the results were considered different, at values of p < 0.05.
# [4] = NO˙ radical scavenging assay (Griess reaction); settings: PBS pH 7.4, sodium nitroprusside
# Procedure: The scavenging of the NO˙ radical was performed by applying previously reported protocols. The in vitro protocol describes the decomposition of sodium nitroprusside in phosphate buffered saline (PBS) at pH = 7.4. The NO˙ radicals would be involved in a Griess reaction if they were not captured by the tested compounds. This reaction results from the formation of an azo dye, with maximum absorption at 546 nm. This azo dye is formed from sulfanilic acid and naphthyl ethylenediamine dichloride.
# [5] = Cupric reducing antioxidant capacity (CUPRAC) assay; parameters: concentration or dose not given beside the values; settings: for CUPRAC, % of Activity of Trolox: relative to Trolox; for CUPRAC, % of Activity of Ascorbic Acid: relative to ascorbic acid
# Procedure: The ability to donate electrons was evaluated for the compounds 5a–d and 6a–d, by the CUPRAC (CUPric reducing antioxidant capacity) method. The absorbance was measured against a blank sample, at λ = 450 nm. The assay was performed based on our group’s previous report by the adaptation of the initial report of Alam et al., Özyürek et al. and Apak et al.. With the use of Equation (4), the cupric ion reduction by compounds 5a–d and 6a–d was expressed as a percentage of the reference compound activity.
# The Cu^2+ ions are reduced to Cu^+ ions by the electron-donating compounds. The Cu^+ ions are chelated by neocuproine, giving a colored complex with absorbance proportional to the quantity of Cu^+ ions that resulted.
# [6] = test system: normal human foreskin fibroblasts (BJ); assay: Cytotoxicity, Alamar blue assay, BJ cells; assay type: cell-based; settings: Homo sapiens, Fibroblast; 24 h exposure, Alamar blue
# Source text: as §1, §2, §3
# [7] = test system: LNCaP (prostate carcinoma) cells; assay: Cytotoxicity, Alamar blue assay, LNCaP cells; assay type: cell-based; settings: Homo sapiens, 24 h exposure
# Source text: as §1, §2, §3
IC50 [2] [µM],IC50 (DPPH˙ scavenging) [2] [µg/mL],melting point [°C],Compound,"FRAP, % of Activity of Trolox [1] [%]","FRAP, % of Activity of Ascorbic Acid [1] [%]",% of DPPH˙ Scavenging ([2]; 1.25 µg/mL),% of DPPH˙ Scavenging ([2]; 2.5 µg/mL),% of DPPH˙ Scavenging ([2]; 3.75 µg/mL),% of DPPH˙ Scavenging ([2]; 5 µg/mL),% of DPPH˙ Scavenging ([2]; 7.5 µg/mL),% of DPPH˙ Scavenging ([2]; 10 µg/mL),% of DPPH˙ Scavenging ([2]; 12.5 µg/mL),% of DPPH˙ Scavenging ([2]; 15 µg/mL),IC50 [3] [µg/mL],% of NO˙ Scavenged [4] [%],"CUPRAC, % of Activity of Trolox [5] [%]","CUPRAC, % of Activity of Ascorbic Acid [5] [%]",IC50 [6] [µg/mL],IC50 [7] [µg/mL]
> 30,>15,225,"CCCCn1c(SCC(=O)NN=C(C)c2ccc(O)cc2O)nc2ccccc2c1=O [Compound 6d, 2-((3-butyl-4-oxo-3,4-dihydroquinazolin-2-yl)thio)-N’-(1-(2,4-dihydroxyphenyl)ethylidene)acetohydrazide]",27.95,24.36,- (- represents less than 5%),- (- represents less than 5%),- (- represents less than 5%),- (- represents less than 5%),- (- represents less than 5%),- (- represents less than 5%),10.99%,13.87%,32.4,30.71,11.25,11.80,> 100,24.3
6.47,2.76,213,"C=CCn1c(SCC(=O)NN=Cc2ccc(O)c(O)c2O)nc2ccccc2c1=O [Compound 5a, 2-((3-Allyl-4-oxo-3,4-dihydroquinazolin-2-yl)thio)-N’-(2,3,4-trihydroxybenzylidene)acetohydrazide]",98.88,86.18,41.09%,49.94%,54.93%,62.06%,73.89%,+ (+ represents more than 95%),+ (+ represents more than 95%),+ (+ represents more than 95%),30.9,38.39,126.56,132.79,> 100,45.6

# Reference: PMC9867241, “Antioxidant and Cytotoxic Activity of New Polyphenolic Derivatives of Quinazolin-4(3H)-one: Synthesis and In Vitro Activities Evaluation” (Pharmaceutics, 2022)
